Test results reported in patent US20250008983A1, “COMPOSITIONS CONTAINING PEROXYACIDS TO CONTROL PATHOGEN GROWTH IN ANIMAL FEED AND RELATED METHODS” (KEMIN INDUSTRIES, INC., priority 2023, published 2025).
Values joined by “and” are separate entries in the source; they are usually repeats but may differ in a detail not shown here. Identical values can stand only once.

Assays:
[1] = tested on: Salmonella enterica isolated from layer feed; assay: Preliminary in vitro feed assay, Salmonella count in contaminated feed over 21 days; type: cell-based; conditions: 15 kg/ton; pre-treatment Day 0
Experimental: Preparation of the treatment. Perpropionic acid, peracetic acid, mixture of peroctanoic acid and perdecanoic acid (PC8/PC10) and Sal CURB products were used without any further dilution or mixing. The peroxy mix was prepared by mixing peracetic and perpropionic acid in 1:1 weight ratio. Briefly, 1.0 g of peroxy mix was prepared by weighing 0.5 g of peracetic acid into 0.5 g of perpropionic acid. The mixture was mixed well prior to usage. Similar procedure was followed in the preparation of 3% sulphuric acid (where […] of water) and peroxy mix with ester (where 0.9 g of peroxy mix (prepared with peracetic and propionic acid) was mixed with 0.1 g of propylene glycol propionate esters). […] Briefly, 1 mL of 75% phosphoric acid was added to 10 mL of Pro-Oxine solution and mixed well. The mixture is covered and let to stand for 10 mins prior to usage.
Preparation of stock feed inoculum. The researchers prepared contaminated feed from known methods, where Salmonella enterica isolated from layer feed was revived from the glycerol stock by plating a loopful of culture onto the TSAYE (i.e., tryptone soya agar supplemented with 0.6% yeast extract (CM0131B; Oxoid) prepared as per recommended) and incubate for 18-24 hours at 37° C. Following which, the colonies were collected aseptically with saline solution (i.e., 0.9% sodium chloride (V800372; Sigma-Aldrich) prepared in deionized water), yielding approximately 5 mL of biomass suspension. The biomass suspension was diluted accordingly to meet the contamination level required for the stock inoculum. No dilution was required for high contamination level of ca. 10^7 cfu/g whereas biomass suspension was diluted 1000 times to achieve lower contamination level of ca. 10^4 cfu/g in the stock inoculum. The stock feed inoculum was prepared by adding the biomass suspension (5 mL) into 100 g of sterile feed (made up with 7:3 ground corn and soybean, autoclaved at 121° C. for one hour and dried for 24 hours at 65° C.) with a syringe and needle, and homogenously mixed after. The stock feed inoculum was stored at 25° C. for a week. Salmonella count of the stock inoculum was determined using conventional plating method with XLD agar (i.e., Xylose lysine deoxycholate (CM0469B; Oxoid)) and BPW (i.e., buffered peptone water (CM0509B; Oxoid)) prior to usage. Briefly, three grams of stock feed inoculum was weighed into a 50 mL conical tube, diluted with 27 mL of BPW, homogenously mixed and left to stand for 30 minutes. The feed suspension was then serial diluted to the appropriate dilutions. An aliquot of 0.1 mL of the feed suspension was plated onto the agar at each dilution and incubated at 37° C. for 18-24 hours prior to enumeration. Plating was carried out in triplicates. Blank stock feed was prepared by adding 5 mL of saline into 100 g of sterile feed.
Preparation of the feed inoculum. The stock feed inoculum was diluted approximately 100 times with sterile feed where three grams of stock inoculum was added into 307 g of sterile feed and kept at 37° C. for 24 hours. The Salmonella count of the feed was determined prior to treatment. Briefly, 90 mL of BPW was added into 10 g of feed sample in a sterile bag (10^−1 dilution). The mixture was homogenously mixed with a stomacher at medium speed for three minutes and left to stand for 30 minutes. The feed supernatant was serial diluted to appropriate dilutions for plating. The plates were incubated at 37° C. for 18-24 hours prior to counting. If low Salmonella count was expected, the sample size was increased to 1 mL by plating 300, 300 and 400 uL onto three plates in triplicates for […] detection limit (10 cfu/g). Blank feed was prepared by adding three grams of blank stock feed into 307 g of sterile feed. In addition, an extra contaminated feed was prepared as a control.
Treatment of contaminated feed. […]

[2] = tested on: S. enteriditis ATCC 13076; assay: Cell membrane permeability, crystal violet assay; type: cell-based, Salmonella enteriditis; conditions: n = 3, two hours at 37° C., ~pH 7, listed as PPA
Experimental: Method. Cell membrane permeability was determined through crystal violet assay where an alteration in the outer cell membrane will result in a higher uptake of the dye, indicating a greater membrane permeability. An overnight culture of S. enteriditis ATCC 13076 in TSBYE was harvested with centrifugation at 6700 rcf for five minutes at room temperature using Eppendorf Centrifuge 5810 R. Upon aspirating the TSBYE, the cell pellets were washed with phosphate-buffered saline (PBS, pH 7.4, 10 mM) twice and resuspended in PBS. Subsequently, 0.75 mL of the cell suspension was added to 0.75 mL of the treatment (prepared in 10 mM PBS) into a two-milliliters microcentrifuge tube and incubated for two hours at 37° C. with agitation at 150 rpm. Cells without any treatments served as the negative control. After two hours of incubation, the cells were again harvested with centrifugation at 6700 rcf for five mins. Subsequently, the cells were resuspended in 10 μg/mL of crystal violet solution prepared in PBS and incubated for another 15 minutes with agitation at 150 rpm. After incubation, the suspension was centrifuged at 13,000 rcf for 15 minutes. The absorbance of the supernatant in each tube was measured at 590 nm. The percentage of dye uptake was calculated based on the ratio of absorbance values (Equation 1).

[3] = Degradation of PPA in diluted/Opticurb solutions with mild steel; type: physicochemical; conditions: in contact with mild steel
Experimental: Degradation of PPA in diluted/Opticurb solutions with mild steel. In another study, the solution of PPA with different diluents was measured for the peroxyacid content initially and after 1 h of immersing the […] to test the PPA degradation rate.

[4] = 2.5% ammonium hydroxide, after 15 minutes
[5] = 2.5% ammonium hydroxide, after 60 minutes
[6] = 5% sodium hydroxide, after 15 minutes
[7] = 5% sodium hydroxide, after 60 minutes
[8] = Sodium phosphate buffer, after 15 minutes
[9] = Sodium phosphate buffer, after 60 minutes

CCC(=O)OO [Perpropionic acid, perpropionic acid]
Salmonella count [1]: 5.62 log cfu/g
Dye uptake, Average ± SD ([2]; 1 kg/T): 67.32% and 67.32 ± 0.80^d %
Dye uptake, Average ± SD ([2]; 2.5 kg/T): 83.82% and 83.82 ± 0.78^e %
Dye uptake, Average ± SD ([2]; 5 kg/T): 88.27% and 88.27 ± 0.42^f %
PPA degradation/min ([3]; 2.5% ammonium hydroxide): 1.10%
H2O2 (%) [3, 4]: 0.77%
PPA (%) [3, 4]: 2.03%
H2O2 (%) [3, 5]: 0.44%
PPA (%) [3, 5]: 0.97%
PPA degradation/min ([3]; 5% sodium hydroxide): 1.16%
H2O2 (%) [3, 6]: 0.9%
PPA (%) [3, 6]: 2.93%
H2O2 (%) [3, 7]: 0.37%
PPA (%) [3, 7]: 1.48%
H2O2 (%) [3, 8]: 1.67%
PPA (%) [3, 8]: 5.27%
H2O2 (%) [3, 9]: 1.6%
PPA (%) [3, 9]: 4.67%
PPA degradation after an hour ([3]; ammonium hydroxide (2.5% wt)): 50%
PPA degradation after an hour ([3]; sodium hydroxide (5% wt.)): 52%
PPA degradation after an hour ([3]; sodium phosphate buffer): ~11%
PPA degradation/min ([3]; sodium phosphate buffer): 0.25%
